The results in this text go back to patent US20190327974A1, “SYNERGISTS FOR IMPROVED PESTICIDES” (priority 2017, published 2019).

The nature of data set [1]: Observation of the spray mixtures (flocculation). The data set is classed as physicochemical. As to conditions: alone and in mixture with CPE in all doses.
For data set [2], the target named is Lucilia cuprina αE7 carboxylesterase (LcαE7) variant Gly137Asp (Lucilia cuprina, UniProt Q25252, G137D). Briefly: Inhibition of Gly137Asp LcαE7, 4-nitrophenol butyrate hydrolysis. The data set is classed as biochemical. From the text: The term “carboxyethylesterase” (CBE), refers to insect carboxylesterases from the alpha and beta and non-microsomal gene clusters, as defined in Oakeshott, Claudianos, Campbell, Newcomb and Russell, “Biochemical Genetic and Genomics of Insect Esterases”, pp 309-381, Chapter 10, Volume 5, 2005, Eds. Gilbert, Iatrou, Gill, published—Elsevier which is incorporated herein by reference. The αE7 CBE is an example of an alpha esterase, and is found in the sheep blowfly, Lucilia cuprina, with homologous genes being present in other insect pests. […]
Lucilia cuprina αE7 carboxylesterase (LcαE7) variant Gly137Asp, sequence (Q25252 entry or part of it G137D): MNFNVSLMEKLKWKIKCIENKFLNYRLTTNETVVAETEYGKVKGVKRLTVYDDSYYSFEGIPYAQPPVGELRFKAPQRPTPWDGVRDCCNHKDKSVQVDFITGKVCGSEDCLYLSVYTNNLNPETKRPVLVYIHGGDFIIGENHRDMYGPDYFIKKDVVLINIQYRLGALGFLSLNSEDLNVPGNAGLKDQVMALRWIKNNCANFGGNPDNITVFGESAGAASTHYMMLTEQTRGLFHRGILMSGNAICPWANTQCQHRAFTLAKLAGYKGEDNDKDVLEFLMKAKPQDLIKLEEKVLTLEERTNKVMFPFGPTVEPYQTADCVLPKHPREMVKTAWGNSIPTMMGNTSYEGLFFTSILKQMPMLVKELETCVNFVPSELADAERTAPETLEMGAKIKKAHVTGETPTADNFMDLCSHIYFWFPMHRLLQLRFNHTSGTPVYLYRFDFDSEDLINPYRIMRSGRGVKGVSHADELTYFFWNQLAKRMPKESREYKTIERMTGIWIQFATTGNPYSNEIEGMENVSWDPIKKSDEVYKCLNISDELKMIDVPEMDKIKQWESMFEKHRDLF
His6-tagged proteins were expressed in BL21(DE3) E. coli (Invitrogen) at 26° C. for 18 hours. […] Protein concentration was determined by measuring the absorbance at 280 nm with an extinction coefficient calculated using the Protparam online server (Gasteiger, E. et al. Protein identification and analysis tools on the ExPASy server. Proteomics Protoc. Handb. 571-607 (2005). doi:10.1385/1-59259-890-0:571).
Inhibition of wild-type αE7 and the Gly137Asp αE7 variant was determined by a competition assay between the native-substrate analogue 4-nitrophenol butyrate (Sigma) and the boronic acid compounds. Initially, the Michalis constant (KM) with 4-nitrophenol butyrate was measured for both enzymes to determine an appropriate concentration of substrate for use in the competition assays. […]

In data set [3] the test system is Myzus persicae (Green peach aphid). As to the kind of experiment: Efficacy of chlorpyrifos-ethyl with boronic acids on aphids on broad bean leaves. It counts as in vivo. As to conditions: for Percentage of efficacy: boronic acid where present 0.2 mg/ml. How it is done: Experimentations was carried out in BIOtransfer, France under controlled conditions.
Bean leaves were treated with chlorpyrifos 480 EC (480 g a.i./1) at 4 application rates (360, 180, 90, 45 g a.i./ha), used alone or in combination with 3 boronic acid (BA) derivates (3.10, 5 and 3.7) each at 0.2 mg/ml. The treatment was performed with an agricultural nozzle (300 L per hectare) […]. A non-treated control condition were also evaluated in parallel. Statistical analysis of the data was then performed. When the leaves were totally dry, 3 leaves were sampled and infested with 3 wingless adults of M. persicae per leaf fragment.
• T+1 (DAT 1)—One day later the number of adults remaining on the leaves was counted. • T+3 (DAT 3)—3 days after treatment the aphid population was estimated; • T+7 (DAT 7)—7 days after treatment the development of aphid population was estimated.
3 bean leaves fragments per microbox*4 microbox per condition (1 condition is 1 formulation at 1 dose)*9 adult aphids per microbox*4 insecticides (3 chlorpyrifos derivates+clorpyrifos alone)*4 rates+2 controls (1 reference insecticide formulation at one dose and non-treated)*3 assessments timings (DAT+1, DAT+3 and DAT+7).

Structures are written as SMILES.

As for `OB(O)c1ccc(OCc2ccccc2F)c(Cl)c1` [Compound 5, 3-Chloro-4(2′-fluorobenzyloxy) phenylboronic acid], the flocculation entry in data set [1] was “Flocculation is observed”.
`OB(O)c1cc(Br)cc(N2CCCC2)c1` [Compound 3]: the “inhibition of Gly137Asp LcαE7” value in data set [2] was “poor inhibitor of Gly137Asp LcαE7”.
For `CCOP(=S)(OCC)Oc1nc(Cl)c(Cl)cc1Cl` [CPE, Chlorpyrifos-ethyl], the Percentage of efficacy is listed as 38% in data set [3] (CPE 0.7, 1 DAT); 20% in data set [3] (CPE 0.7, 3 DAT); 25% in data set [3] (CPE 0.7, 7 DAT); 41% in data set [3] (CPE 1.4, 1 DAT); 27% in data set [3] (CPE 1.4, 3 DAT); 25% in data set [3] (CPE 1.4, 7 DAT). Also, the Percentage of efficacy in data set [3] (CPE 2.8, 1 DAT) stood at 32%; in data set [3] (CPE 2.8, 3 DAT) it was 26%; in data set [3] (CPE 2.8, 7 DAT) it was 23%; in data set [3] (CPE 5.6, 1 DAT) it was 36%; in data set [3] (CPE 5.6, 3 DAT), 48%; in data set [3] (CPE 5.6, 7 DAT), 67%. Also, the “Calibration results (efficacy)” value in data set [3] (CPE 1.4, 1 DAT) was 33%; in data set [3] (CPE 1.4, 3 DAT), 51%; in data set [3] (CPE 1.4, 7 DAT), 51%; in data set [3] (CPE 2.8, 1 DAT), 31%; in data set [3] (CPE 2.8, 3 DAT), 79%; in data set [3] (CPE 2.8, 7 DAT), 99%. Moreover, the “Calibration results (efficacy)” value in data set [3] (CPE 5.6, 1 DAT) was 67%; in data set [3] (CPE 5.6, 3 DAT), 98%; in data set [3] (CPE 5.6, 7 DAT) it was 100%.
